{"source": "patent US20090162855A1", "about": "“Identification of Genetic Variants Associated with Increased Severity of Pulmonary Disease” (CASE WESTERN RESERVE UNIVERSITY, priority 2007, published 2009)", "key": {"[1]": {"tested_on": "tracheal smooth muscle cells", "assay": "Mitogenic index by BrdU incorporation in primary cultures of tracheal smooth muscle cells", "assay_type": "cell-based, human", "details": "for proliferation (BrdU incorporation), treated vs untreated: cultures from 9 individuals, estrogen 72 hrs", "description": "(§1) A cellular phenotype that could potentially explain the genotype-phenotype association is a difference in smooth muscle proliferation. To be able to assess this in vitro, we have carried out studies examining the mitogenic effects of the receptor agonist, endothelin, on cultured smooth muscle cells, as well as those of estrogen and Transforming Growth Factor Beta 1 (TGFβ1). In these studies, TGFβ1 is used as a control mitogen in that it exerts its effect on proliferation independent of the endothelin receptor. […] Primary cultures of tracheal smooth muscle cells from 4 individuals were treated with TGFβ1, estrogen, endothelin, or estrogen and endothelin (Estr/Endo) for 72 hrs, and assayed for mitogenic index by BrdU incorporation (FIG. 8A) or for cell number (FIG. 8B). Values shown are ratios of treated to untreated (control) cells grown simultaneously. Each cell line and condition was carried out in triplicate. […] An EDNRA antagonist, BQ123 (Sigma), was included at 1 μM to determine if EDNRA-mediated effects could be blocked.\nA larger group of cell lines stratified by genotype was examined. Primary cultures of tracheal smooth muscle cells from 9 individuals were treated with estrogen for 72 hrs, assayed for BrdU incorporation and compared to control cultures (no estrogen). FIG. 9 provides the ratio of treated to untreated cells. […] Treatment with estrogen appears to result in increased proliferation, but the effect is genotype dependent. This is in contrast to other reports of vascular smooth muscle in which estrogen inhibits proliferation."}, "human ASM cells": {"tested_on": "human ASM cells", "assay": "Actin stress fiber formation (TRITC-phalloidin) in cultured ASM cells", "assay_type": "cell-based", "details": "cultured in presence of ET-1 for 24 hours; preliminary data", "description": "FIG. 11 is a pair of micrographs of cultured ASM cells placed in either serum free media (A) or media containing ET-1 (B) for 24 hr; and\nEDNRA is expressed on airway and vascular smooth muscle. Using indirect immunocytochemical staining of human ASM cells from the trachealis muscle retrieved from necroscopy tissue of 53 individuals, we have determined these cells consistently display EDNRA on the cell membrane (FIG. 10—staining is predominantly along cell membranes). […] This implies a functional receptor with ligand binding and intact intracellular signaling pathways."}, "smooth muscle cells": {"tested_on": "smooth muscle cells", "assay": "Intracellular calcium mobilization from sarcoplasmic reticulum measured using Fura-2", "assay_type": "cell-based", "details": "24 hrs in endothelin, washout", "experimental": "FIG. 12 is a graph showing the response of cultures of smooth muscle cells to endothelin-1 (ET-1) acutely (control) and sarcoplasmic reticulum release of calcium measured by Fura-2 fluorescence ratios.\nSmooth muscle cells of various EDNRA genotype combinations were examined for changes in intracellular calcium in response to endothelin. The effects of chronic exposure were assessed by incubating the cells for 24 hrs in endothelin, followed by a brief washout (30 minutes) and then re-exposure to endothelin and measurement of calcium release. […] For these assays, intracellular calcium mobilization from sarcoplasmic reticulum was measured using Fura-2. No significant differences were observed between subjects with regards to magnitude or duration of response from acute stimulation (FIG. 12, control). However, if cultured for 24 hrs in the presence of endothelin, washed out just before reexposure, there is a significant difference between subjects in the magnitude of response (FIG. 12, ET-1 conditioned)."}, "[2]": {"tested_on": "tracheal smooth muscle cells", "assay_type": "cell-based, human", "details": "cultures from 4 individuals, 72 hrs", "description": "as §1"}, "EDNRA mRNA": {"tested_on": "EDNRA mRNA", "assay": "Quantitative RT-PCR of EDNRA mRNA in smooth muscle cell lines treated with estrogen", "assay_type": "cell-based, human", "details": "9 smooth muscle cell lines (5 female, 4 male), estrogen 24 hours, vs unstimulated cells, 18S rRNA internal control", "experimental": "Effects of these variants on EDNRA mRNA levels were examined. Primary airway smooth muscle cells from 10 non-CF individuals were harvested for DNA and RNA. Airway smooth muscle cells were cultured from tracheas obtained from autopsy. Cells were isolated from human trachealis muscle by digesting with collagenase and elastase in the presence of soybean trypsin inhibitor at 37° C. as previously described. The cells were harvested by centrifugation after filtering through Nytex and grown in Dulbecco's modified eagle's medium (DMEM/F12 1:1) containing 10% fetal bovine serum, 100 U/ml penicillin and 100 μg/ml streptomycin at 37° C. in a humidified atmosphere with 5% CO2 and 95% air. DNA samples were genotyped for rs1801708 and rs5335 and EDNRA mRNA quantified from total RNA by real time RT-PCR. EDNRA mRNA was quantified relative to 18s rRNA in 10 airway smooth muscle cell lines and compared by genotype. RNA was isolated from airway smooth muscle cells using the Qiagen RNeasy kit. […] A Ct was established for each sample and compared to standard curves to determine mRNA quantity. […] Values are expressed as a ratio of EDNRA: 18s copies. […]\nNine smooth muscle cell lines were exposed to estrogen and mRNA levels compared to unstimulated cells. […] Quantitative RT-PCR was carried out to determine copy number using 18S rRNA as an internal control. […]"}}, "note": "Square brackets hold non-standard residues; d marks the D form. Peptide text beside a SMILES is read from it."}
{"compound": "CC(C)C[C@@H]1NC(=O)[C@@H](C(C)C)NC(=O)[C@@H]2CCCN2C(=O)[C@@H](CC(=O)O)NC(=O)[C@@H](Cc2c[nH]c3ccccc23)NC1=O", "note": "[BQ123] (cyclo(L[dW][dD]P[dV]))", "values": [{"measurement": "mitogenic index of cells with EDNRA antagonist included", "setting": "[1]; BQ123 at 1 μM", "result": "reduced the mitogenic index"}]}
{"compound": "CC[C@H](C)[C@H](NC(=O)[C@H](CC(=O)O)NC(=O)[C@H](CC(C)C)NC(=O)[C@H](Cc1c[nH]cn1)NC(=O)[C@@H]1CSSC[C@H](N)C(=O)N[C@@H](CO)C(=O)N[C@H]2CSSC[C@H](NC(=O)[C@H](CCC(=O)O)NC(=O)[C@H](CCCCN)NC(=O)[C@H](CC(=O)O)NC(=O)[C@H](CCSC)NC(=O)[C@H](CC(C)C)NC(=O)[C@H](CO)NC(=O)[C@H](CO)NC2=O)C(=O)N[C@@H](C(C)C)C(=O)N[C@@H](Cc2ccc(O)cc2)C(=O)N[C@@H](Cc2ccccc2)C(=O)N1)C(=O)N[C@H](C(=O)N[C@@H](Cc1c[nH]c2ccccc12)C(=O)O)[C@@H](C)CC", "note": "[endothelin-1]", "values": [{"measurement": "formation of actin stress fibers", "setting": "human ASM cells", "result": "increases the formation of actin stress fibers"}, {"measurement": "calcium release activity lost on re-exposure", "setting": "smooth muscle cells; cells with \"adverse\" genotypes", "result": "10-15%"}, {"measurement": "calcium release activity on re-exposure, of pre-exposure activity", "setting": "smooth muscle cells; cells with \"protective\" genotype of 3′ markers", "result": 15, "unit": "%"}]}
{"compound": "Transforming Growth Factor Beta 1 [TGFβ1]", "values": [{"measurement": "mitogenic index (BrdU incorporation), ratio of treated to untreated cells", "setting": "[1]; cultures from 4 individuals, 72 hrs", "result": "tripled"}, {"measurement": "cell number, ratio of treated to untreated cells", "setting": "[2]", "result": "did not significantly alter cell number"}]}
{"compound": "estrogen", "values": [{"measurement": "proliferation (BrdU incorporation), treated vs untreated", "setting": "[1]; cells with \"protective\" GG genotype", "result": "no effect"}, {"measurement": "proliferation (BrdU incorporation), treated vs untreated", "setting": "[1]; cells with \"severe\" AA genotype", "result": "increase proliferation"}, {"measurement": "increase of EDNRA mRNA levels in response to hormone treatment", "setting": "EDNRA mRNA", "result": "approximately 5 fold"}]}
